Results reported in patent publication US12030868B2, “Prodrugs of CGRP antagonists” (Pfizer Ireland Pharmaceuticals, priority 2018, dated 2024).
Structures can show the parent of a compound that is named as a salt.

Key:
[1] = Caco-2 permeability assay; type: in vitro ADME, human; details: human, Caco-2 monolayer, donor 10 μM, 37° C., pH 7.4; for Papp A→B at 90 min, 10 μM: apical to basolateral; for Papp B→A at 90 min, 10 μM: basolateral to apical
Method: (§1) Caco-2 Permeability Assay
(§2) The Caco-2 cells are cultured to confluency, trypsinized and seeded onto a filter transwell insert at a density of ^˜32,000 cells/well in DMEM cell culture medium. Cells are grown in a humidified atmosphere of 5% CO2 at 37° C. Following an overnight attachment period (24 h after seeding), the cell medium is replaced with fresh medium in both the apical and basolateral compartments every other day. The cell monolayers are used for transport studies 21 days post seeding after measuring the TEER values ([…]). The apical sides and basolateral sides are washed consecutively with HBSS 2.5% (v/v), HEPES (pH 7.4) or HBSS 2.5% (v/v), HEPES 10% (v/v), and Fetal Bovine Serum (pH 7.4) at 37° C. in an incubator under an atmosphere of 5% CO2.
(§3) Donor working solution is prepared by dilution of DMSO stock of test article or positive control with transport media to 10 μM.
(§4) For A→B directional transport, the donor working solution (with test article or positive control, with or without Pgp inhibitor) is added to the apical (A) compartment and the transport media as receiver working solution is added to the basolateral (B) compartment. For B→A directional transport, the donor working solution (with positive control or test article, with or without Pgp inhibitor) is added to the basolateral (B) compartment and transport media as receiver working solution is added to the apical (A) compartment.
(§5) The cells are incubated in a humidified atmosphere of 5% CO2 at 37° C. for 90 minutes.
(§6) At the end of the incubation, samples are taken from both donor and receiver compartments and transferred into 96-well assay plates containing internal standard solution (IS) in each well. After centrifugation, the supernatant solutions are transferred to clean 96 well plates and analyzed by LC-MS/MS. The MS detection is performed using a Sciex API 4000 instrument. Each compound is analyzed by reversed phase HPLC.
(§7) The parameters Papp (apparent permeability) and efflux ratio are calculated as follows: Papp=(dQ/dt)×(1/C0)×(1/A) Efflux ratio=Papp[B→A]/Papp[A→B] • where dQ/dt is the permeability rate, C0 is the initial concentration in the donor compartment, and A is the surface area of the cell monolayer (0.33 cm^2). The Papp value is a rate measured in cm/s.
(§8) Comparing the efflux ratios generated in the presence and absence of a Pgp inhibitor identifies whether the test article is a Pgp substrate.
(§9) Recovery is calculated as follows: % Recovery=(Total compound mass in donor and receiver compartments at the end of the incubation/Initial compound mass in the donor compartment)×100.

[2] = tested on: Caco-2 cells; assay: Caco-2 permeability assay; type: in vitro ADME, human; details: Caco-2 monolayer, donor 10 μM, 90 minutes, 37° C., pH 7.4; for Papp A-B: apical to basolateral; for Papp B-A: basolateral to apical
Method: as §1, §2, §3, §4, §5, §6, §7, §8, §9

With `Cc1cc(C[C@@H](NC(=O)N2CCC(c3cc4ccccc4[nH]c3=O)CC2)C(=O)N2CCN(C3CCN(C)CC3)CC2)cc2cn[nH]c12` [BHV-3500, N-[(2R)-3-(7-methyl-1H-indazol-5-yl)-1-[4-(1-methylpiperidin-4-yl)piperazin-1-yl]-1-oxopropan-2-yl]-4-(2-oxo-1,2-dihydroquinolin-3-yl)piperidine-1-carboxamide, reference compound] the Papp A→B at 90 min, 10 μM [1] was < 0.05 ×10⁻⁶ cm/s.
Molecule `Cc1cc(C[C@@H](NC(=O)N2CCC(c3cc4ccccc4n(COC(=O)C(C)(C)C)c3=O)CC2)C(=O)N2CCN(C3CCN(C)CC3)CC2)cc2cn(COC(=O)C(C)(C)C)nc12` [Example 4, {5-[(2R)-2-{[4-(1-{[(2,2-dimethylpropanoyl)oxy]methyl}-2-oxo-1,2-dihydroquinolin-3-yl)piperidine-1-carbonyl]amino}-3-[4-(1-methylpiperidin-4-yl)piperazin-1-yl]-3-oxopropyl]-7-methyl-2H-indazol-2-yl}methyl 2,2-dimethylpropanoate trifluoroacetate] has a Papp A→B at 90 min, 10 μM [1] of 5.1 ×10⁻⁶ cm/s and a Papp B→A at 90 min, 10 μM [1] of 2.9 ×10⁻⁶ cm/s.
`Cc1cc2cc3cn(nc13)COC(=O)C(C)(C)C/C=C\CC(C)(C)C(=O)OCn1c(=O)c(cc3ccccc31)C1CCN(CC1)C(=O)N[C@@H](C(=O)N1CCN(C3CCN(C)CC3)CC1)C2` [Example 10, (16Z,31R)-14,14,19,19,27-pentamethyl-31-[4-(1-methylpiperidin-4-yl)piperazine-1-carbonyl]-12,21-dioxa-10,23,32,34,40-pentaazahexacyclo[32.2.2.1^2,10.1^23,26.1^25,29.0^4,9]hentetraconta-2,4(9),5,7,16,24,26(40),27,29(39)-nonaene-13,20,33,41-tetrone] showed a Papp A→B at 90 min, 10 μM [1] of 0.31 ×10⁻⁶ cm/s and a Papp B→A at 90 min, 10 μM [1] of 28.9 ×10⁻⁶ cm/s.
For `Cc1cc2cc3cn(nc13)COC(=O)C1(C/C=C\CC3(CC3)C(=O)OCn3c(=O)c(cc4ccccc43)C3CCN(CC3)C(=O)N[C@@H](C(=O)N3CCN(C4CCN(C)CC4)CC3)C2)CC1` [Example 13, (16′Z,31′S)-27′-methyl-31′-[4-(1-methylpiperidin-4-yl)piperazine-1-carbonyl]dispiro[cyclopropane-1,14′-[12,21]dioxa-[10,23,32,34,40]pentaazahexacyclo[32.2.2.1^2,10.1^23,26.1^25,29.0^4,9]hentetracontane-19′,1″-cyclopropane]-2′,4′(9′),5′,7′,16′,24′,26′(40′),27′,29′(39′)-nonaene-13′,20′,33′,41′-tetrone trifluoroacetate], the Papp A→B at 90 min, 10 μM [1] was 0.839 ×10⁻⁶ cm/s and the Papp B→A at 90 min, 10 μM [1] was 20 ×10⁻⁶ cm/s.
`CCCCCCN(C)C(=O)OCn1cc2cc(C[C@@H](NC(=O)N3CCC(c4cc5ccccc5n(COC(=O)N(C)CCCCCC)c4=O)CC3)C(=O)N3CCN(C4CCN(C)CC4)CC3)cc(C)c2n1` [Example 93, {5-[(2R)-2-({4-[1-({[hexyl(methyl)carbamoyl]oxy}methyl)-2-oxo-1,2-dihydroquinolin-3-yl]piperidine-1-carbonyl}amino)-3-[4-(1-methylpiperidin-4-yl)piperazin-1-yl]-3-oxopropyl]-7-methyl-2H-indazol-2-yl}methyl N-hexyl-N-methylcarbamate] showed a Papp A→B at 90 min, 10 μM [1] of 1.13 ×10⁻⁶ cm/s and a Papp B→A at 90 min, 10 μM [1] of 10.7 ×10⁻⁶ cm/s.
For `Cc1cc2cc3cn(nc13)COC(=O)C(C)(C)CCCCC(C)(C)C(=O)OCn1c(=O)c(cc3ccccc31)C1CCN(CC1)C(=O)N[C@@H](C(=O)N1CCN(C3CCN(C)CC3)CC1)C2` [Example 125, (31R)-14,14,19,19,27-pentamethyl-31-[4-(1-methylpiperidin-4-yl)piperazine-1-carbonyl]-12,21-dioxa-10,23,32,34,40-pentaazahexacyclo[32.2.2.1^2,10.1^23,26.1^25,29.0^4,9]hentetraconta-2,4,6,8,24,26(40),27,29(39)-octaene-13,20,33,41-tetrone], the Papp A→B at 90 min, 10 μM [1] was 2.2 ×10⁻⁶ cm/s and the Papp B→A at 90 min, 10 μM [1] was 13.9 ×10⁻⁶ cm/s.
In the case of “(R)-(3-(1-(3-(7-methyl-2-(octanoyloxymethyl)-2H-indazol-5-yl)-1-(4-(1-methylpiperidin-4-yl)piperazin-1-yl)-1-oxopropan-2-ylcarbamoyl)piperidin-4-yl)-2-oxoquinolin-1(2H)-yl)methyl octanoate compound with (R)-heptyl 7-methyl-5-(3-(4-(1-methylpiperidin-4-yl)piperazin-1-yl)-2-(4-(1-(octanoyloxymethyl)-2-oxo-1,2-dihydroquinolin-3-yl)piperidine-1-carboxamido)-3-oxopropyl)-1H-indazole-1-carboxylate (1:1) [Example 59]”, the “Papp A-B” value [2] was 2.2 ×10⁻⁶ cm/s and the “Papp B-A” value [2] was 7.6 ×10⁻⁶ cm/s.
With “(R)-(7-methyl-5-(3-(4-(1-methylpiperidin-4-yl)piperazin-1-yl)-3-oxo-2-(4-(2-oxo-1,2-dihydroquinolin-3-yl)piperidine-1-carboxamido)propyl)-1H-indazol-1-yl)methyl heptanoate compound with (R)-(7-methyl-5-(3-(4-(1-methylpiperidin-4-yl)piperazin-1-yl)-3-oxo-2-(4-(2-oxo-1,2-dihydroquinolin-3-yl)piperidine-1-carboxamido)propyl)-2H-indazol-2-yl)methyl heptanoate (1:1) [Example 61]” the “Papp A-B” value [2] was 2.5 ×10⁻⁶ cm/s and the “Papp B-A” value [2] was 1.96 ×10⁻⁶ cm/s.
